Reference: ChEMBL document CHEMBL3885881, “DrugMatrix”

Organism: Rattus norvegicus
Test: DrugMatrix - Regimen: Daily Repeat
Type: toxicity, organism-based, Sprague-Dawley
Set-up: regimen Daily Repeat, gender Male, age 6-8 weeks
Details: in vivo, po, route oral GAVAGE, vehicle 100 % WATER; for BASOPHIL / EOSINOPHIL / ERYTHROCYTE COUNT / HEMATOCRIT / HEMOGLOBIN / LEUKOCYTE COUNT / LYMPHOCYTE / MEAN CORPUSCULAR HEMOGLOBIN / MEAN CORPUSCULAR HEMOGLOBIN CONCENTRATION / MEAN CORPUSCULAR VOLUME / MONOCYTE / NEUTROPHIL / PLATELET COUNT: tissue Blood; for ALANINE AMINOTRANSFERASE / ALBUMIN / ALKALINE PHOSPHATASE / ASPARTATE AMINOTRANSFERASE / BLOOD UREA NITROGEN / CHLORIDE / CHOLESTEROL / CREATINE PHOSPHOKINASE / CREATININE / GLUCOSE / PHOSPHORUS / POTASSIUM / SODIUM / TOTAL BILIRUBIN / TOTAL PROTEIN: tissue Plasma
[1] = 0 mg/kg, 72 h, dose level Control, time 3 day
[2] = 0 mg/kg, 120 h, dose level Control, time 5 day
[3] = 4 mg/kg, 72 h, dose level Low, time 3 day
[4] = 4 mg/kg, 120 h, dose level Low, time 5 day

CCN(CC)CCOC(=O)C1(C2CCCCC2)CCCCC1 [DICYCLOMINE]
BASOPHIL [1]: 0% | EOSINOPHIL [1]: 0.5% | ERYTHROCYTE COUNT [1]: 5.8 x10E6/uL | HEMATOCRIT [1]: 35.07% | HEMOGLOBIN [1]: 14.12 G/DL | LEUKOCYTE COUNT [1]: 13.7 x10E3/uL | LYMPHOCYTE [1]: 82.33% | MEAN CORPUSCULAR HEMOGLOBIN [1]: 24.38 pg | MEAN CORPUSCULAR HEMOGLOBIN CONCENTRATION [1]: 40.28 G/DL | MEAN CORPUSCULAR VOLUME [1]: 60.52 fL | MONOCYTE [1]: 2.67% | NEUTROPHIL [1]: 14.5% | PLATELET COUNT [1]: 911.5 x10E3/uL | ALANINE AMINOTRANSFERASE [1]: 36.83 u/L | ALBUMIN [1]: 3.75 G/DL | ALKALINE PHOSPHATASE [1]: 399.83 u/L | ASPARTATE AMINOTRANSFERASE [1]: 66 u/L | BLOOD UREA NITROGEN [1]: 14.67 mg/dL | CHLORIDE [1]: 101.67 MEQ/L | CHOLESTEROL [1]: 66.33 mg/dL | CREATINE PHOSPHOKINASE [1]: 139.5 u/L | CREATININE [1]: 0.92 mg/dL | GLUCOSE [1]: 175 mg/dL | PHOSPHORUS [1]: 11.42 mg/dL | POTASSIUM [1]: 7.03 MEQ/L | SODIUM [1]: 148.5 MEQ/L | TOTAL BILIRUBIN [1]: 1.13 mg/dL | TOTAL PROTEIN [1]: 6.87 G/DL | BASOPHIL [2]: 0% | EOSINOPHIL [2]: 0.2% | ERYTHROCYTE COUNT [2]: 6.02 x10E6/uL | HEMATOCRIT [2]: 36.48% | HEMOGLOBIN [2]: 14.38 G/DL | LEUKOCYTE COUNT [2]: 12.34 x10E3/uL | LYMPHOCYTE [2]: 83% | MEAN CORPUSCULAR HEMOGLOBIN [2]: 23.92 pg | MEAN CORPUSCULAR HEMOGLOBIN CONCENTRATION [2]: 39.44 G/DL | MEAN CORPUSCULAR VOLUME [2]: 60.66 fL | MONOCYTE [2]: 3% | NEUTROPHIL [2]: 13.8% | PLATELET COUNT [2]: 1190.6 x10E3/uL | ALANINE AMINOTRANSFERASE [2]: 43 u/L | ALBUMIN [2]: 3.73 G/DL | ALKALINE PHOSPHATASE [2]: 393 u/L | ASPARTATE AMINOTRANSFERASE [2]: 62.33 u/L | BLOOD UREA NITROGEN [2]: 16.33 mg/dL | CHLORIDE [2]: 101.67 MEQ/L | CHOLESTEROL [2]: 65.5 mg/dL | CREATINE PHOSPHOKINASE [2]: 130.67 u/L | CREATININE [2]: 0.58 mg/dL | GLUCOSE [2]: 180.67 mg/dL | PHOSPHORUS [2]: 11.28 mg/dL | POTASSIUM [2]: 7.05 MEQ/L | SODIUM [2]: 148.17 MEQ/L | TOTAL BILIRUBIN [2]: 0.72 mg/dL | TOTAL PROTEIN [2]: 6.83 G/DL | BASOPHIL [3]: 0% | EOSINOPHIL [3]: 0.33% | ERYTHROCYTE COUNT [3]: 6.01 x10E6/uL | HEMATOCRIT [3]: 36.27% | HEMOGLOBIN [3]: 14.33 G/DL | LEUKOCYTE COUNT [3]: 12.73 x10E3/uL | LYMPHOCYTE [3]: 85.67% | MEAN CORPUSCULAR HEMOGLOBIN [3]: 23.9 pg | MEAN CORPUSCULAR HEMOGLOBIN CONCENTRATION [3]: 39.57 G/DL | MEAN CORPUSCULAR VOLUME [3]: 60.4 fL | MONOCYTE [3]: 2% | NEUTROPHIL [3]: 12% | PLATELET COUNT [3]: 1302.67 x10E3/uL | ALANINE AMINOTRANSFERASE [3]: 37.67 u/L | ALBUMIN [3]: 3.63 G/DL | ALKALINE PHOSPHATASE [3]: 354.67 u/L | ASPARTATE AMINOTRANSFERASE [3]: 62.33 u/L | BLOOD UREA NITROGEN [3]: 14 mg/dL | CHLORIDE [3]: 102.67 MEQ/L | CHOLESTEROL [3]: 65.33 mg/dL | CREATINE PHOSPHOKINASE [3]: 133.33 u/L | CREATININE [3]: 0.63 mg/dL | GLUCOSE [3]: 179.67 mg/dL | PHOSPHORUS [3]: 11.7 mg/dL | POTASSIUM [3]: 6.7 MEQ/L | SODIUM [3]: 150.67 MEQ/L | TOTAL BILIRUBIN [3]: 0.53 mg/dL | TOTAL PROTEIN [3]: 6.6 G/DL | BASOPHIL [4]: 0% | EOSINOPHIL [4]: 0.33% | ERYTHROCYTE COUNT [4]: 6.36 x10E6/uL | HEMATOCRIT [4]: 39.27% | HEMOGLOBIN [4]: 15.3 G/DL | LEUKOCYTE COUNT [4]: 12.77 x10E3/uL | LYMPHOCYTE [4]: 87.33% | MEAN CORPUSCULAR HEMOGLOBIN [4]: 24.03 pg | MEAN CORPUSCULAR HEMOGLOBIN CONCENTRATION [4]: 38.97 G/DL | MEAN CORPUSCULAR VOLUME [4]: 61.73 fL | MONOCYTE [4]: 2.67% | NEUTROPHIL [4]: 9.67% | PLATELET COUNT [4]: 1082 x10E3/uL | ALANINE AMINOTRANSFERASE [4]: 45 u/L | ALBUMIN [4]: 3.6 G/DL | ALKALINE PHOSPHATASE [4]: 424.67 u/L | ASPARTATE AMINOTRANSFERASE [4]: 67.67 u/L | BLOOD UREA NITROGEN [4]: 15.67 mg/dL | CHLORIDE [4]: 104.33 MEQ/L | CHOLESTEROL [4]: 65 mg/dL | CREATINE PHOSPHOKINASE [4]: 107.33 u/L | CREATININE [4]: 0.6 mg/dL | GLUCOSE [4]: 195 mg/dL | PHOSPHORUS [4]: 12.53 mg/dL | POTASSIUM [4]: 6.67 MEQ/L | SODIUM [4]: 151 MEQ/L | TOTAL BILIRUBIN [4]: 0.63 mg/dL | TOTAL PROTEIN [4]: 6.53 G/DL
